Test results published in US11491132B2, “Methods for treating thrombocytopenia” (Enzychem Lifesciences Corporation, priority 2014, dated 2022).

How the values were obtained:
[1] = tested on: neutrophils, platelets, Complement 3; test: Chemotherapy-induced neutropenia and thrombocytopenia (CIN) animal model; assay type: in vivo, mice
Procedure: The effect of PLAG for treatment of neutropenia and thrombocytopenia induced by chemotherapy (CIN) is evaluated in an animal model. Anti-cancer agents (Gemcitabine 50 mg/kg, Cyclosphosphamide […], or Tamoxifen 50 mg/kg) are dosed daily for 3 weeks; PLAG is also administered 50 mg/kg daily for 3 weeks. After three weeks, neutrophils are harvested and counted with Auto Hematology Analyzer BC-5300.
It is believed that the neutropenia and thrombocytopenia of these agents and other chemotherapeutic agents may be due at least in part to a specific complement-mediated toxicity. This is seen in FIG. 6.

[2] = tested on: hematopoietic stem cells and megakaryocytes; conditions: reported in WO 99/26640; cited from earlier work
[3] = tested on: PKCθ/p38 MAPK/ERK pathway; test: Dephosphorylation of p38 MAPK and ERK1/2 in PLAG-treated RBL-2H3 cells, western blot; assay type: cell-based; conditions: PLAG pre-incubated RBL-2H3 cells, IgE-antigen complex stimulation
Procedure: Dephosphorylation of p38 MAPK and ERK1/2 in PLAG-treated RBL-2H3 cells is determined by western blot analysis using anti-phospho-p38 and anti-phospho-ERK1/2 respectively. To activate the p38 and ERK1/2 in RBL-2H3 cells, the cells are sensitized with 50 ng/mL of anti-DNP-IgE overnight. After washing with PBS three times, 20 ng/ml of DNP-HSA is added. Each cell lysate for western blot is prepared in the PLAG-treated RBL-2H3 cells in a dose-dependent manner and incubated for the same time (15 min). β-actin is used as internal controls. ERK1/2 and p38 phosphorylation start immediately after IgE-antigen complex stimulation and remain sufficiently activated for 5 min.

[4] = tested on: platelets and neutrophils; test: Pilot study: thrombocytopenia and neutropenia in pancreatic cancer patients receiving chemotherapy; assay type: in vivo, human; conditions: 16 patients
Procedure: PLAG is administered to sixteen pancreatic cancer patients after chemotherapy. The subjects of this study are unoperable pancreatic cancer patients with ECOG (Eastern Cooperative Oncology Group) performance status of “0” or “1”, i.e. patients in good physical condition without much pain, able to enjoy almost normal lifestyle and thus, eligible for anticancer treatment for at least 2 months. The pancreatic cancer patients are “locally advanced” patients having tumor metastasis to the major vessels around pancreas or “Distant metastasis” patients with distant metastasis to liver, lung, bone, etc. ECOG performance status “0” refers to a patient who is asymptomatic, fully active, able to carry on all predisease activities without restriction with no pain and no problem for normal lifestyle, while “1” refers to a patient who is symptomatic but completely ambulatory with mile pain and a little problem for normal life. Anticancer (Gemcitabine and Erlotinib combo treatment) Regimen is as follows: 1,000 mg of Gemcitabine is injected once a week for three weeks (Day 1, Day 8, Day 15), and is not injected in the next one week (Day 22). Therefore, 1 cycle of anticancer treatment requires 1 month. 100 mg of Erlotinib (Tarceva) is administered once per day everyday orally. 1,000 mg of PLAG is also administered once per day orally, starting from 3 days before anticancer treatment until the last chemotherapy treatment. The PLAG treatment group and control group both completed two cycles of anticancer treatment. There is no difference among the control and PALG treatment groups in the amount or schedule of anticancer treatment.

[5] = tested on: platelets; test: Phenylhydrazine-induced platelet reduction in mice; assay type: in vivo; conditions: PHZ 100 mg/kg i.p., PLAG 5 mg/kg orally
Procedure: To evaluate the effect of PLAG on the concentration of platelets mice are treated with compounds which would be expected to cause reductions in platelet numbers, specifically phenylhydrazine, tamoxifen or lipopolysaccharide.
Mice are injected with 100 mg/kg phenylhydrazine (PHZ), i.p., to induce anemia and reduction of platelets. 5 mg/kg PLAG is administered to the mice orally and blood samples are taken at 3 and 13 days after. In addition, for comparison, normal mice which are not treated with phenylhydrazine are prepared as a normal group, and mice treated with PHZ and olive oil instead of PLAG are prepared as a control group. The blood samples taken from the mice are treated with 0.5 ml EDTA (Minicollect tube, Greiner bio-one, Austria) and concentration of platelet is measured using automated blood sample analyzer BC-6800 (Mindray, Shenzhen, China) by number of platelet per […] (k: 1,000).

[6] = tested on: C3; test: C3 expression in IL-4/TNF-α treated HMC-1 cells, RT-PCR; assay type: cell-based, human; conditions: HMC-1 cells treated with IL-4 and TNF-α; PLAG 0.1 and 1 μg/mL pre-treatment, or S6I
Procedure: A blood cell line, HMC-1 (human mast cell, American Type Culture Collection, ATCC, Rockville, Md.) is incubated and maintained at 37° C. under 5% CO2 humid conditions. The medium is IMDM (Life Technologies, Karlsruhe, Germany) containing 10% Fetal Calf Serum (FCS, HyClone, Logan, Utah), 2 mM […], 100 μg/ml penicillin, 100 μg/ml streptomycin (Life Technologies). The cultured HMC-1 cells (1×10^6 cell/ml) are pre-treated with 0.1 and 1 μg/mL concentration of PLAG, followed by treating with IL-4 (5 ng) and/or TNF-α (10 ng) to induce cellular activities.
The expressed C3 and its mRNA level change are observed by using RT-PCR (Reverse Transcriptase Polymerase Chain Reaction). The RT-PCR is carried out as follows: the total RNA is separated by the standard protocol and cDNA is synthesized using AccuScript High Fidelity 1st Strand cDNA Synthesis Kit (Stratagene) by the manufacturer's instructions. Two-step RT-PCR reaction is conducted using Oligo-dT primer and reverse transcriptase, pair of primer and Taq polymerase (Takara, Shiga, Japan). […] The product of PCR is separated using 1.5% agarose gel, dyed with ethidium bromide (EtBr), and visualized with Gel Doc 2000 UV trans-illuminator (Bio-Rad Laboratories, Hercules, Calif., USA), and the experimental data is analyzed using Quantity One software (Bio-Rad Laboratories).

[7] = Gemcitabine and Erlotinib, PLAG 1,000 mg once per day orally, two cycles

## CCCCC/C=C\C/C=C\CCCCCCCC(=O)OC(COC(C)=O)COC(=O)CCCCCCCCCCCCCCC (racemic) [PLAG, 1-palmitoyl-2-linoleoyl-3-acetylglycerol]
[1]; Gemcitabine 50 mg/kg with PLAG 50 mg/kg
  neutrophil score: improved significantly
[1]; Gemcitabine with continued PLAG vs Gemcitabine alone
  survival rate: improved survival rate
[1]; Gemcitabine, Cyclophosphamide or Tamoxifen daily 3 weeks, PLAG 50 mg/kg daily 3 weeks
  reduced neutrophil count following chemotherapy: prevented
[1]; Gemcitabine, Cyclophosphamide or Tamoxifen with PLAG
  Complement 3 activation by chemotherapeutic agents, blockage: largely blocked
[1]; Tamoxifen 50 mg/kg co-treated with PLAG 50 mg/kg vs Tamoxifen only
  activities and survival rate: faster improvement of activities and survival rate
[1]; cyclophosphamide with PLAG 50 mg/kg vs control group
  neutrophil count: improved significantly
[2]
  growth-stimulating activities of hematopoietic stem cells and megakaryocytes: growth-stimulating activities
[3]
  ERK1/2 and p38 phosphorylation: down-regulated
[4]; [7]
  patients whose platelet number dropped to less than 25,000/μl: no patient
  patients with platelet number decrease to less than 50,000/μl: no patient
[4]; PLAG treatment group
  patients with >70% decrease in platelet count: none
  patients with neutrophil decrease to less than 500/μl: none
  patients with neutrophil number decrease to less than 75%: none and not one patient
[5]
  Platelet (day 3) Conc: 1072 ± 125.4 k/ul
[6]
  expression of C3: suppressed by PLAG on a concentration dependent basis
